This note sets out measurements from patent US20230079045A1 (priority 2019, published 2023).

Common to all, as to assay type: cell-based, influenza virus
The test system of experiment [1] is IFVA/Mal/302/54. Description: cytopathic effect (CPE) antiviral test in MDCK cells, IFVA/Mal/302/54. To be noted: unidentified influenza virus, MDCK, 120 h, read-out: EC50(IFVA/Mal/302/54), MDCK cells, CPE method, CCK-8 cell viability, 5 days. (Protection from cytopathic effect is a common read-out in antiviral testing.)
In experiment [2] the test system is IFVA/Weiss/43. Description: cytopathic effect (CPE) antiviral test in MDCK cells, IFVA/Weiss/43. To be noted: unidentified influenza virus, MDCK, 120 h, read-out: EC50(IFVA/Weiss/43), MDCK cells, CPE method, CCK-8 cell viability, 5 days.
Experiment [3] relates to IFV A/PR/8/34. Description: cytopathic effect (CPE) antiviral test in MDCK cells, IFV A/PR/8/34. To be noted: unidentified influenza virus, PR/8, MDCK, 120 h, read-out: EC50(IFV A/PR/8/34).

Consider `O=C(Nc1ccc2nc(-c3ccnc(C(=O)N4CCN(C(c5ccccc5)c5nnn(C(F)F)n5)CC4)c3)oc2c1)[C@@H]1CC1(F)F` (mixture of isomers) [Compound 103, (S)—N-(2-(2-(4-((R/S)-(2-(difluoromethyl)-2H-tetrazol-5-yl)(phenyl)methyl)piperazine-1-carbonyl)pyridin-4-yl)benzo[d]oxazol-6-yl)-2,2-difluorocyclopropane-1-carboxamide], for which the figures for the EC50 in experiment [1], in experiment [2] and in experiment [3] were 17 nM, 7 nM and 26 nM, respectively.
Turning to `O=C(Nc1ccc2oc(-c3ccnc(C(=O)N4CCN(C(c5ccccc5)c5nnn(C(F)F)n5)CC4)c3)cc2c1)[C@@H]1C[C@@H]1F` (mixture of isomers) [Compound 111, (1S,2S)—N-(2-(2-(4-((R/S)-(2-(difluoromethyl)-2H-tetrazol-5-yl)(phenyl)methyl)piperazine-1-carbonyl)pyridin-4-yl)benzofuran-5-yl)-2-fluorocyclopropane-1-carboxamide], the EC50 in experiment [1] amounted to 2 nM; in experiment [2] it was 0.5 nM; in experiment [3], 2 nM.
On to `Cc1nnn(C(c2ccccc2)C2CCN(C(=O)c3cc(-c4nc5cc(NC(=O)[C@@H]6C[C@@H]6F)ccc5o4)ccn3)CC2)n1` (mixture of isomers) [Compound 120, (1S,2S)-2-fluoro-N-(2-(2-(4-((R/S)-(5-methyl-2H-tetrazol-2-yl)(phenyl)methyl)piperidine-1-carbonyl)pyridin-4-yl)benzo[d]oxazol-5-yl)cyclopropanecarboxamide], for which the EC50 was determined as 14 nM in experiment [1], 3 nM in experiment [2] and 12 nM in experiment [3].
For the compound `CC(=O)Nc1ccc2oc(-c3ccnc(C(=O)C4CCN(C(c5ccccc5)c5nnn(C(F)F)n5)CC4)c3)nc2c1` (racemic) [Compound 42, (R/S)—N-(2-(2-(1-((2-(difluoromethyl)-2H-tetrazol-5-yl)(phenyl)methyl)piperidine-4-carbonyl)pyridin-4-yl)benzo[d]oxazol-5-yl)acetamide], the EC50 was determined as 10 nM in experiment [1], 20 nM in experiment [2] and 20 nM in experiment [3].
On to `Cn1nnc(C(c2ccccc2)N2CCN(C(=O)c3cc(-c4nc5cc(N6CCCC6=O)ccc5o4)ccn3)CC2)n1` (racemic) [Compound 45, (R/S)-1-(2-(2-(4-((2-methyl-2H-tetrazol-5-yl)(phenyl)methyl)piperazine-1-carbonyl)pyridin-4-yl)benzo[d]oxazol-5-yl)pyrrolidin-2-one], for which the figures for the EC50 in experiment [1], in experiment [2] and in experiment [3] were 12 nM, 15 nM and 27 nM, respectively.
Turning to `O=C(Nc1ccc2oc(-c3ccnc(C(=O)N4CCN(C(c5ccccc5)c5nnn(C(F)F)n5)CC4)c3)nc2c1)C1CCC1` (racemic) [Compound 67, (R/S)—N-(2-(2-(4-((2-(difluoromethyl)-2H-tetrazol-5-yl)(phenyl)methyl)piperazine-1-carbonyl)pyridin-4-yl)benzo[d]oxazol-5-yl)cyclobutanecarboxamide], the EC50 in experiment [1] is 21 nM; in experiment [2], 12 nM; in experiment [3] it was 17 nM.
Regarding `O=C(c1cc(-c2nc3cc(-c4cnsc4)ccc3o2)ccn1)N1CCN(C(c2ccccc2)c2nnn(C(F)F)n2)CC1` (racemic) [Compound 101, (R/S)-(4-((2-(difluoromethyl)-2H-tetrazol-5-yl)(phenyl)methyl)piperazin-1-yl)(4-(5-(isothiazol-4-yl)benzo[d]oxazol-2-yl)pyridin-2-yl)methanone], the EC50 in experiment [1] stood at 6 nM; in experiment [2] it was 4 nM; in experiment [3], 27 nM.
`CC(=O)Nc1ccc2oc(-c3ccnc(C(=O)N4CCN(C(c5ccccc5)c5nnn(C(F)F)n5)CC4)c3F)nc2c1` (stereo not drawn) [Compound 56, N-(2-(2-(4-((2-(difluoromethyl)-2H-tetrazol-5-yl)(phenyl)methyl)piperazine-1-carbonyl)-3-fluoropyridin-4-yl)benzo[d]oxazol-5-yl)acetamide]: the EC50 was determined as 33 nM in experiment [1] and 17 nM in experiment [2].
For `CC(=O)Nc1cc2nc(-c3ccnc(C(=O)N4CCN(C(c5ccccc5)c5nnn(C(F)F)n5)CC4)c3)oc2cc1F` (stereo not drawn) [Compound 59, N-(2-(2-(4-((2-(difluoromethyl)-2H-tetrazol-5-yl)(phenyl)methyl)piperazine-1-carbonyl)pyridin-4-yl)-6-fluorobenzo[d]oxazol-5-yl)acetamide], the EC50 in experiment [1] was 58 nM; in experiment [2] it was 56 nM.
For `CC(=O)Nc1ccc2nn(-c3ccnc(C(=O)N4CCN(C(c5ccccc5)c5nnn(C(F)F)n5)CC4)c3)cc2c1` (stereo not drawn) [Compound 60, N-(2-(2-(4-((2-(difluoromethyl)-2H-tetrazol-5-yl)(phenyl)methyl)piperazine-1-carbonyl)pyridin-4-yl)-2H-indazol-5-yl)acetamide], the EC50 in experiment [1] worked out at 84 nM; in experiment [2], 54 nM.
On to `CC(=O)Nc1cc(F)c2oc(-c3ccnc(C(=O)N4CCN(C(c5ccccc5)c5nnn(C(F)F)n5)CC4)c3)nc2c1` (stereo not drawn) [Compound 61, N-(2-(2-(4-((2-(difluoromethyl)-2H-tetrazol-5-yl)(phenyl)methyl)piperazine-1-carbonyl)pyridin-4-yl)-7-fluorobenzo[d]oxazol-5-yl)acetamide], for which the EC50 in experiment [1] worked out at 78 nM; in experiment [2], 28 nM.
Regarding `CC(=O)Nc1ccc2nc(-c3ccnc(C(=O)N4CCN(C(c5ccccc5)c5nnn(C(F)F)n5)CC4)c3)oc2c1` (stereo not drawn) [Compound 70, N-(2-(2-(4-((2-(difluoromethyl)-2H-tetrazol-5-yl)(phenyl)methyl)piperazine-1-carbonyl)pyridin-4-yl)benzo[d]oxazol-6-yl)acetamide], the EC50 in experiment [1] and in experiment [2] was 32 nM each time.
On to `O=C(c1cc(-c2nc3cc(N4CCCC4)ccc3o2)ccn1)N1CCN(C(c2ccccc2)c2nnn(C(F)F)n2)CC1` (stereo not drawn) [Compound 71, (4-((2-(difluoromethyl)-2H-tetrazol-5-yl)(phenyl)methyl)piperazin-1-yl)(4-(5-(pyrrolidin-1-yl)benzo[d]oxazol-2-yl)pyridin-2-yl)methanone], for which the EC50 in experiment [1] is 52 nM; in experiment [2] it was 31 nM.
Consider `O=C(Nc1ccc2oc(-c3ccnc(C(=O)N4C5CCC4CN(C(c4ccccc4)c4nnn(C(F)F)n4)C5)c3)nc2c1)C1CC1` (stereo not drawn) [Compound 175, N-(2-(2-(3-((2-(difluoromethyl)-2H-tetrazol-5-yl)(phenyl)methyl)-3,8-diazabicyclo[3.2.1]octane-8-carbonyl)pyridin-4-yl)benzo[d]oxazol-5-yl)cyclopropanecarboxamide], for which the EC50 was 21 nM in experiment [1] and 13 nM in experiment [2].
Regarding `O=C1CCCN1c1ccc2oc(-c3ccnc(C(=O)N4C5CCC4CN(C(c4ccccc4)c4nnn(C(F)F)n4)C5)c3)nc2c1` (stereo not drawn) [Compound 176, 1-(2-(2-(3-((2-(difluoromethyl)-2H-tetrazol-5-yl)(phenyl)methyl)-3,8-diazabicyclo[3.2.1]octane-8-carbonyl)pyridin-4-yl)benzo[d]oxazol-5-yl)pyrrolidin-2-one], the results for the EC50 in experiment [1] and in experiment [2] were 21 nM and 33 nM, respectively.
Consider `Cn1nnc(C(c2ccccc2)N2CCN(C(=O)c3cc(-c4nc5cc(NC(=O)C6(F)CC6)ccc5o4)ccn3)CC2)n1` (stereo not drawn) [Compound 194, 1-fluoro-N-(2-(2-(4-((2-methyl-2H-tetrazol-5-yl)(phenyl)methyl)piperazine-1-carbonyl)pyridin-4-yl)benzo[d]oxazol-5-yl)cyclopropane-1-carboxamide], for which the EC50 in experiment [1] was determined as 25 nM; in experiment [2], 24 nM.
